Laboratory results published in US9962350B2, “Agent for improving normal development rate of fertilized eggs” (SBI Pharmaceuticals Co., Ltd., priority 2014, dated 2018).

Tested on: fertilized eggs of the C57BL/6J lineage
Experiment: In vitro culture of natural mating-derived fertilized eggs in M16 medium supplemented with ALA; embryo development
Format: cell-based, mouse
Conditions: 37° C.
Excerpt: The female mice used to harvest fertilized eggs were female mice of the C57BL/6J lineage (21 weeks old to 27 weeks old, body weight: 21.0 to 24.5 g). The male mice used for mating were male mice of the C57BL/6J lineage (32 to 38 weeks old, body weight: 30.0 to 35.5 g). According to a routine method of controlled ovarian hyperstimulation, 5 U (units) of equine chorionic gonadotropin (serum gonadotrophin) (manufactured by ASKA Pharmaceutical Co., Ltd.) were intraperitoneally administered to each female mouse. 45 to 48 hours later, 5 U (units) of gonadotropin (human chorionic gonadotropin) (manufactured by ASKA Pharmaceutical Co., Ltd.) were intraperitoneally administered to each female mouse. Immediately after the administration of gonadotropin, each female mouse was mated with each male mouse described above.
On the next day, the presence or absence of a milky resin-like vaginal plug was determined for the mated female mice, and the oviducts were harvested from the female mice confirmed to have the vaginal plug. The harvested oviducts were left standing in physiological saline (0.9% (w/v) NaCl) for approximately 15 minutes and then transferred into M16 medium supplemented with approximately 300 μg/mL of hyaluronidase (manufactured by Sigma-Aldrich Corp.) for cumulus cell removal treatment. The oviducts were incised, and fertilized eggs were isolated and left standing at 37° C. for 5 to 10 minutes in a CO2 incubator. Then, the fertilized eggs separated from the cumulus cells were recovered and washed with hyaluronidase-unsupplemented M16 medium to remove hyaluronidase. The resulting cumulus cell-free fertilized eggs were left standing at 37° C. in a CO2 incubator.
Aside therefrom, a drop of 100 μL of M16 medium covered with mineral oil (manufactured by Sigma-Aldrich Corp.) and supplemented with ALA hydrochloride (manufactured by SBI Pharmaceuticals Co., Ltd.) at a final concentration of 0 μM (control), 0.1 μM, 0.5 μM, or 1 μM was prepared in a 35 mm Petri dish and left standing at 37° C. in a CO2 incubator. 29 or 30 of the cumulus cell-free fertilized eggs were transferred to the resulting drop and cultured in vitro at 37° C. in a CO2 incubator.
After a lapse of 24 hours, 48 hours, 72 hours, and 96 hours from the start of the in vitro culture (0 hours) in the drop, the developmental stage of each embryo was determined by observation under a stereoscopic microscope, and the number of embryos whose development progressed normally and change in development rate were calculated. Specifically, the number of 2-cell eggs 24 hours after the start of the culture, the number of 3-cell, 4-cell, and 8-cell eggs 48 hours thereafter, the number of morulae and blastocysts 72 hours thereafter, and the number of blastocysts 96 hours thereafter were counted as embryos whose development progressed normally at each stage. The development rate with the number of fertilized eggs (0 hours) defined as 100% is shown in Table 3 and the graph of FIG. 1. For the evaluation of the development rate, the percentage of the number of embryos whose development progressed normally 24 hours, 48 hours, 72 hours, and 96 hours after the start of the culture was calculated with the number of fertilized eggs (0 hours) defined as 100%, and used as a normal development rate. Because of the natural mating, the number of recovered fertilized eggs (0 hours) includes unfertilized eggs to some extent, and there is the possibility that the content of unfertilized eggs varies accidentally among fertilized eggs (0 hours) populations distributed to the respective condition groups even if the fertilized eggs (0 hours) populations have been recovered in the same experiment. The development rate calculated with the number of 2-cell embryos 24 hours postfertilization defined as 100% was calculated in order to eliminate the influence of the content of unfertilized eggs that varies accidentally among the respective condition groups. […]

NCC(=O)CCC(=O)O [ALA, 5-aminolevulinic acid]
The number of developed embryos (0.1 μM ALA, 24 hr): 22
development rate with the number of fertilized eggs (0 hr) defined as 100% (0.1 μM ALA, 24 hr): 73%
The number of developed embryos (0.1 μM ALA, 48 hr): 19
development rate with the number of 2-cell embryos 24 hours postfertilization defined as 100% (0.1 μM ALA, 48 hr): 86%
development rate with the number of fertilized eggs (0 hr) defined as 100% (0.1 μM ALA, 48 hr): 63%
The number of developed embryos (0.1 μM ALA, 72 hr): 14
development rate with the number of 2-cell embryos 24 hours postfertilization defined as 100% (0.1 μM ALA, 72 hr): 64%
The number of developed embryos (0.1 μM ALA, 96 hr): 7
The number of developed embryos (0.5 μM ALA, 24 hr): 24
development rate with the number of fertilized eggs (0 hr) defined as 100% (0.5 μM ALA, 24 hr): 83%
The number of developed embryos (0.5 μM ALA, 48 hr): 21
development rate with the number of 2-cell embryos 24 hours postfertilization defined as 100% (0.5 μM ALA, 48 hr): 88%
development rate with the number of fertilized eggs (0 hr) defined as 100% (0.5 μM ALA, 48 hr): 72%
The number of developed embryos (0.5 μM ALA, 72 hr): 14
development rate with the number of 2-cell embryos 24 hours postfertilization defined as 100% (0.5 μM ALA, 72 hr): 58%
The number of developed embryos (0.5 μM ALA, 96 hr): 13
The number of developed embryos (1 μM ALA, 24 hr): 19
development rate with the number of fertilized eggs (0 hr) defined as 100% (1 μM ALA, 24 hr): 66%
The number of developed embryos (1 μM ALA, 48 hr): 19
development rate with the number of 2-cell embryos 24 hours postfertilization defined as 100% (1 μM ALA, 48 hr): 100%
development rate with the number of fertilized eggs (0 hr) defined as 100% (1 μM ALA, 48 hr): 66%
The number of developed embryos (1 μM ALA, 72 hr): 15
The number of developed embryos (1 μM ALA, 96 hr): 13
